Test results taken from patent US20220257775A1 (GLYCOMIMETICS, INC., priority 2019, published 2022).

Each molecule was assayed against T1, recombinant human E-selectin/CD63E Fc Chimera (Homo sapiens, UniProt P16581) (assay: E-Selectin Activity - Analysis by SPR). Details: Biacore X100, E-selectin captured on anti-human IgG (Fc) chip.
T1 construct: Fc (human IgG Fc fusion partner); purchased R & D systems
T1 sequence (P16581 with tags, fused parts or gaps limits assumed): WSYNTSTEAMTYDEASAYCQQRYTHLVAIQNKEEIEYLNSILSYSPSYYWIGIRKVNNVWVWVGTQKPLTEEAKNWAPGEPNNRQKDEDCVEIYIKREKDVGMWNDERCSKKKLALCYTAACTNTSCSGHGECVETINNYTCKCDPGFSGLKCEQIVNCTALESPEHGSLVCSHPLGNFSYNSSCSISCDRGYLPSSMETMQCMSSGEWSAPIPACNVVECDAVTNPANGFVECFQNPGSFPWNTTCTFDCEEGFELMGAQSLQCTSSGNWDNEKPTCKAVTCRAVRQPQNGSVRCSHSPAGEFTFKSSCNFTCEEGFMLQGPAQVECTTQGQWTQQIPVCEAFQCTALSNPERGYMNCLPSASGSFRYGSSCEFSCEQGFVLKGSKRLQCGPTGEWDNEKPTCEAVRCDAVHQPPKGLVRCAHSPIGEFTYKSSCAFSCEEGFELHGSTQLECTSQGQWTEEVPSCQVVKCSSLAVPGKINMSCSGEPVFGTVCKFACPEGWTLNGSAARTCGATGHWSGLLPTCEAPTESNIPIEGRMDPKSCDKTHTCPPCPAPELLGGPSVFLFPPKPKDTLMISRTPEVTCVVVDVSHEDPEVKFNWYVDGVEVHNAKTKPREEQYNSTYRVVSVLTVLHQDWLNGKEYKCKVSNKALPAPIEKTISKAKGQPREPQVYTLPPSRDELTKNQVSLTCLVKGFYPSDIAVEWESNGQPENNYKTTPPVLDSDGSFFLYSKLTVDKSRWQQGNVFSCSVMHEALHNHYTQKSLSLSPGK
Type: binding
Protocol: Surface Plasmon Resonance (SPR) measurements were performed on a Biacore X100 instrument (GE Healthcare). A CM5 sensor chip (GE Healthcare) was used for the interaction between E-selectin and GMI compound. Anti-human IgG (Fc) antibody (GE Healthcare) was immobilized onto the chip by amine coupling according to the manufacturer's instructions. In brief, after a 7-min injection (flow rate of 5 μl/min) of 1:1 mixture of N-ethyl-N′-(3-dimethylaminopropyl) carbodiimide hydrochloride and N-hydroxysuccinimide, anti-human IgG (Fc) antibody (25 μg/ml in 10 mM sodium acetate buffer, pH 5.0) was injected using a 6-min injection at 5 μl/min. Remaining activated groups were blocked by injecting 1 M ethanolamine/HCl, pH 8.5. The recombinant human E-selectin/CD63E Fc Chimera (50 μg/ml) (R & D systems) was injected into the experimental cell until 6000-7000 RU was captured onto the antibody surface. No recombinant human E-selectin/CD63E was injected into the control cell. Increasing concentrations of GMI compound samples were injected at 30 μl/min into both flow cells and all sensorgrams were recorded against the control. Regeneration of the anti-human IgG (Fc) surface was achieved by injecting 3M magnesium chloride, followed by 50 mM sodium hydroxide. Data were analyzed using Biacore X100 evaluation/BIA evaluation 4.1.1 software (GE Healthcare) and Graphad prism 6 software.
CC[C@H]1C[C@@H](C(=O)NCCNC(=O)c2cn(CCOCCOCCn3cc(C(=O)NCCNC(=O)[C@@H]4C[C@H](CC)[C@@H](O[C@@H]5O[C@@H](C)[C@@H](O)[C@@H](O)[C@@H]5O)[C@H](O[C@@H]5O[C@H](CO)[C@H](O)[C@H](O[C@@H](CC6CCCCC6)C(=O)O)[C@H]5NC(C)=O)C4)nn3)nn2)C[C@@H](O[C@@H]2O[C@H](CO)[C@H](O)[C@H](O[C@@H](CC3CCCCC3)C(=O)O)[C@H]2NC(C)=O)[C@@H]1O[C@@H]1O[C@@H](C)[C@@H](O)[C@@H](O)[C@@H]1O [Compound 28] gave a Kd of 3.2 nM. For CC[C@H]1C[C@@H](C(=O)NCCNC(=O)CCOCCOCCC(=O)NCCNC(=O)[C@@H]2C[C@H](CC)[C@@H](O[C@@H]3O[C@@H](C)[C@@H](O)[C@@H](O)[C@@H]3O)[C@H](O[C@@H]3O[C@H](CO)[C@H](O)[C@H](O[C@@H](CC4CCCCC4)C(=O)O)[C@H]3NC(C)=O)C2)C[C@@H](O[C@@H]2O[C@H](CO)[C@H](O)[C@H](O[C@@H](CC3CCCCC3)C(=O)O)[C@H]2NC(C)=O)[C@@H]1O[C@@H]1O[C@@H](C)[C@@H](O)[C@@H](O)[C@@H]1O [Compound 18], the Kd was 3.5 nM. CC[C@H]1C[C@@H](C(=O)NCCNC(=O)CCOCCOCCOCCOCCOCCOCCOCCOCCOCCOCCOCCOCCOCCOCCOCCOCCOCCOCCOCCOCCOCCOCCOCCOCCOCCC(=O)NCCNC(=O)[C@@H]2C[C@H](CC)[C@@H](O[C@@H]3O[C@@H](C)[C@@H](O)[C@@H](O)[C@@H]3O)[C@H](O[C@@H]3O[C@H](CO)[C@H](O)[C@H](O[C@@H](CC4CCCCC4)C(=O)O)[C@H]3NC(C)=O)C2)C[C@@H](O[C@@H]2O[C@H](CO)[C@H](O)[C@H](O[C@@H](CC3CCCCC3)C(=O)O)[C@H]2NC(C)=O)[C@@H]1O[C@@H]1O[C@@H](C)[C@@H](O)[C@@H](O)[C@@H]1O [Compound 12] was tested, and the Kd was 3.7 nM. In the case of CCC1CC(C(=O)NCCNC(=O)c2cn(CCOCCC(=O)NCCCC[C@H](NC(=O)CCOCCn3cc(C(=O)NCCNC(=O)C4CC(CC)[C@@H](O[C@@H]5OC(C)[C@@H](O)[C@H](O)C5O)[C@H](O[C@@H]5O[C@@H](CO)[C@H](O)C(O[C@@H](CC6CCCCC6)C(=O)O)C5NC(C)=O)C4)nn3)C(=O)OCc3ccccc3)nn2)C[C@@H](O[C@@H]2O[C@@H](CO)[C@H](O)C(O[C@@H](CC3CCCCC3)C(=O)O)C2NC(C)=O)[C@@H]1O[C@@H]1OC(C)[C@@H](O)[C@H](O)C1O (stereo partly drawn) [Compound 37], the Kd is reported as 3.9 nM. Molecule CC[C@H]1C[C@@H](C(=O)NCCNC(=O)CCOCCOCCOCCOCCOCCOCCC(=O)NCCNC(=O)[C@@H]2C[C@H](CC)[C@@H](O[C@@H]3O[C@@H](C)[C@@H](O)[C@@H](O)[C@@H]3O)[C@H](O[C@@H]3O[C@H](CO)[C@H](O)[C@H](O[C@@H](CC4CCCCC4)C(=O)N4CCC4)[C@H]3NC(C)=O)C2)C[C@@H](O[C@@H]2O[C@H](CO)[C@H](O)[C@H](O[C@@H](CC3CCCCC3)C(=O)N3CCC3)[C@H]2NC(C)=O)[C@@H]1O[C@@H]1O[C@@H](C)[C@@H](O)[C@@H](O)[C@@H]1O [Compound 24] has a Kd of 2.4 nM. Work on CCC1CC(C(=O)NCCNC(=O)CCC(=O)NCCN(CCNC(=O)CCC(=O)NCCNC(=O)C2CC(CC)C(OC3OC(C)C(O)C(O)C3O)C(OC3OC(CO)C(O)C(OC(CC4CCCCC4)C(=O)O)C3NC(C)=O)C2)CCNC(=O)CCC(=O)NCCNC(=O)C2CC(CC)C(OC3OC(C)C(O)C(O)C3O)C(OC3OC(CO)C(O)C(OC(CC4CCCCC4)C(=O)O)C3NC(C)=O)C2)CC(OC2OC(CO)C(O)C(OC(CC3CCCCC3)C(=O)O)C2NC(C)=O)C1OC1OC(C)C(O)C(O)C1O (stereo not drawn) [Compound 42] yielded a Kd of 1.5 nM. For CC[C@H]1C[C@@H](C(=O)NCCNC(=O)NCCNC(=O)[C@@H]2C[C@H](CC)[C@@H](O[C@@H]3O[C@@H](C)[C@@H](O)[C@@H](O)[C@@H]3O)[C@H](O[C@@H]3O[C@H](CO)[C@H](O)[C@H](O[C@@H](CC4CCCCC4)C(=O)O)[C@H]3NC(C)=O)C2)C[C@@H](O[C@@H]2O[C@H](CO)[C@H](O)[C@H](O[C@@H](CC3CCCCC3)C(=O)O)[C@H]2NC(C)=O)[C@@H]1O[C@@H]1O[C@@H](C)[C@@H](O)[C@@H](O)[C@@H]1O [Compound 32], the Kd was 8.8 nM. CC[C@H]1C[C@@H](C(=O)NCCNC(=O)Cn2cc(C(=O)NCCNC(=O)[C@@H]3C[C@H](CC)[C@@H](O[C@@H]4O[C@@H](C)[C@@H](O)[C@@H](O)[C@@H]4O)[C@H](O[C@@H]4O[C@H](CO)[C@H](O)[C@H](O[C@@H](CC5CCCCC5)C(=O)O)[C@H]4NC(C)=O)C3)nn2)C[C@@H](O[C@@H]2O[C@H](CO)[C@H](O)[C@H](O[C@@H](CC3CCCCC3)C(=O)O)[C@H]2NC(C)=O)[C@@H]1O[C@@H]1O[C@@H](C)[C@@H](O)[C@@H](O)[C@@H]1O [Compound 31] gave a Kd of 3.3 nM. In the case of CC[C@H]1C[C@@H](C(=O)NCCNC(=O)CCOCCOCCOCCOCCOCCOCCOCCOCCOCCOCCOCCOCCOCCOCCOCCOCCOCCC(=O)NCCNC(=O)[C@@H]2C[C@H](CC)[C@@H](O[C@@H]3O[C@@H](C)[C@@H](O)[C@@H](O)[C@@H]3O)[C@H](O[C@@H]3O[C@H](CO)[C@H](O)[C@H](O[C@@H](CC4CCCCC4)C(=O)O)[C@H]3NC(C)=O)C2)C[C@@H](O[C@@H]2O[C@H](CO)[C@H](O)[C@H](O[C@@H](CC3CCCCC3)C(=O)O)[C@H]2NC(C)=O)[C@@H]1O[C@@H]1O[C@@H](C)[C@@H](O)[C@@H](O)[C@@H]1O [Compound 11], the Kd is reported as 8.5 nM.
